Measurements from ChEMBL document CHEMBL5316313, “Discovery of Novel 3-Phenylpiperidine Derivatives Targeting the β-Catenin/B-Cell Lymphoma 9 Interaction as a Single Agent and in Combination with the Anti-PD-1 Antibody for the Treatment of Colorectal Cancer” (J Med Chem, 2023).
The source made the active and inactive calls. The rule behind the calls is not given here.

How the values were obtained:
CT26 [1] = details: Mus musculus, BALB/c, dose 30.0 mg/kg, route ip
Description: In vivo inhibition of Wnt signaling pathway in mouse CT26 cells implanted in BALB/c mouse assessed as reduction in Axin2 mRNA expression level in tumor at 30 mg/kg, ip QD by qRT-PCR analysis

[2] = Toxicity in BALB/c mouse xenografted with mouse CT26 cells assessed as pathological changes in liver at 30 mg/kg, ip QD in presence of anti-PD-1 antibody cotreatment at 10 mg/kg,ip BIW by hematoxylin and eosin staining based microscopic analysis; assay type: organism-based; details: in vivo
[3] = Toxicity in BALB/c mouse xenografted with mouse CT26 cells assessed as pathological changes in lung at 30 mg/kg, ip QD by hematoxylin and eosin staining based microscopic analysis; assay type: organism-based; details: in vivo
HEK293 [4] = test: Induction of apoptosis in Wnt-independent human HEK293 cells assessed as early apoptotic cells at 10 uM incubated for 24 hrs by Annexin V-Alexa Fluor 647/PI staining based flow cytomtery (Rvb=17.4%); assay type: functional
HEK293 [5] = test: Antiproliferative activity against Wnt-independent human HEK293 cells assessed as cell growth inhibition at 40 uM incubated for 48 hrs by CellTiter-Glo assay; assay type: functional, cell-based
[6] = Toxicity in BALB/c mouse xenografted with mouse CT26 cells assessed as pathological changes in lung at 30 mg/kg, ip QD in presence of anti-PD-1 antibody cotreatment at 10 mg/kg,ip BIW by hematoxylin and eosin staining based microscopic analysis; assay type: organism-based; details: in vivo
CT26 [7] = test: Synergistic antitumor activity in mouse CT26 cells xenografted in BALB/c mouse assessed as increase in GZMB mRNA expression level in tumor at 30 mg/kg, ip QD in presence of anti-PD-1 antibody cotreatment at 10 mg/kg,ip BIW by qRT-PCR analysis; assay type: functional, organism-based
CT26 [8] = test: Induction of apoptosis in Wnt-dependent mouse CT26 cells assessed as viable cells at 10 uM incubated for 24 hrs by Annexin V-Alexa Fluor 647/PI staining based flow cytomtery (Rvb=70.7%); assay type: functional; details: read-out: Activity
[9] = biological target: T1, beta-catenin-B-cell lymphoma 9 protein complex (Homo sapiens, UniProt P35222); test: Inhibition of beta-catenin/BCL9 protein-protein interaction in Wnt-dependent human SW480 cells assessed as reduction in Axin2 expression level by qRT-PCR assay; assay type: cell-based
T1 sequence (P35222 whole entry): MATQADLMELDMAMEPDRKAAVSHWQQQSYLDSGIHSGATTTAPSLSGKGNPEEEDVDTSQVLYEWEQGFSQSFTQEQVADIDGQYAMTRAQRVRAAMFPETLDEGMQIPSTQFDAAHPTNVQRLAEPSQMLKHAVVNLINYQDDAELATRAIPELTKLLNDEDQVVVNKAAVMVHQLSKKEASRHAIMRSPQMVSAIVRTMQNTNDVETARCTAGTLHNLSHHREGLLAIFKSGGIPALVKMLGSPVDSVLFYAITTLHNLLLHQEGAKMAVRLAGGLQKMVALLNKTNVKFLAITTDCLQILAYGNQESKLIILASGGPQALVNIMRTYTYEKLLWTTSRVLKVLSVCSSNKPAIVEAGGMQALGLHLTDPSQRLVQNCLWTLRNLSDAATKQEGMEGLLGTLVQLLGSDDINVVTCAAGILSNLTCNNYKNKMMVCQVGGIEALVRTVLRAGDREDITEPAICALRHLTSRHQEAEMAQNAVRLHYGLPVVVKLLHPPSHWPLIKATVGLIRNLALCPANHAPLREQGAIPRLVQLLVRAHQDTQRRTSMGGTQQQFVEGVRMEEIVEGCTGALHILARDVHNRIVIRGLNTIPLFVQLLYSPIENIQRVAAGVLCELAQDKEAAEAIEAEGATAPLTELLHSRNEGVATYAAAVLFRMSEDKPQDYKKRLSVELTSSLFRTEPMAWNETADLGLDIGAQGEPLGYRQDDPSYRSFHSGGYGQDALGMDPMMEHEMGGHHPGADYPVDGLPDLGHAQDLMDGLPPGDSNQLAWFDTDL
T1 sequence (O00512 whole entry): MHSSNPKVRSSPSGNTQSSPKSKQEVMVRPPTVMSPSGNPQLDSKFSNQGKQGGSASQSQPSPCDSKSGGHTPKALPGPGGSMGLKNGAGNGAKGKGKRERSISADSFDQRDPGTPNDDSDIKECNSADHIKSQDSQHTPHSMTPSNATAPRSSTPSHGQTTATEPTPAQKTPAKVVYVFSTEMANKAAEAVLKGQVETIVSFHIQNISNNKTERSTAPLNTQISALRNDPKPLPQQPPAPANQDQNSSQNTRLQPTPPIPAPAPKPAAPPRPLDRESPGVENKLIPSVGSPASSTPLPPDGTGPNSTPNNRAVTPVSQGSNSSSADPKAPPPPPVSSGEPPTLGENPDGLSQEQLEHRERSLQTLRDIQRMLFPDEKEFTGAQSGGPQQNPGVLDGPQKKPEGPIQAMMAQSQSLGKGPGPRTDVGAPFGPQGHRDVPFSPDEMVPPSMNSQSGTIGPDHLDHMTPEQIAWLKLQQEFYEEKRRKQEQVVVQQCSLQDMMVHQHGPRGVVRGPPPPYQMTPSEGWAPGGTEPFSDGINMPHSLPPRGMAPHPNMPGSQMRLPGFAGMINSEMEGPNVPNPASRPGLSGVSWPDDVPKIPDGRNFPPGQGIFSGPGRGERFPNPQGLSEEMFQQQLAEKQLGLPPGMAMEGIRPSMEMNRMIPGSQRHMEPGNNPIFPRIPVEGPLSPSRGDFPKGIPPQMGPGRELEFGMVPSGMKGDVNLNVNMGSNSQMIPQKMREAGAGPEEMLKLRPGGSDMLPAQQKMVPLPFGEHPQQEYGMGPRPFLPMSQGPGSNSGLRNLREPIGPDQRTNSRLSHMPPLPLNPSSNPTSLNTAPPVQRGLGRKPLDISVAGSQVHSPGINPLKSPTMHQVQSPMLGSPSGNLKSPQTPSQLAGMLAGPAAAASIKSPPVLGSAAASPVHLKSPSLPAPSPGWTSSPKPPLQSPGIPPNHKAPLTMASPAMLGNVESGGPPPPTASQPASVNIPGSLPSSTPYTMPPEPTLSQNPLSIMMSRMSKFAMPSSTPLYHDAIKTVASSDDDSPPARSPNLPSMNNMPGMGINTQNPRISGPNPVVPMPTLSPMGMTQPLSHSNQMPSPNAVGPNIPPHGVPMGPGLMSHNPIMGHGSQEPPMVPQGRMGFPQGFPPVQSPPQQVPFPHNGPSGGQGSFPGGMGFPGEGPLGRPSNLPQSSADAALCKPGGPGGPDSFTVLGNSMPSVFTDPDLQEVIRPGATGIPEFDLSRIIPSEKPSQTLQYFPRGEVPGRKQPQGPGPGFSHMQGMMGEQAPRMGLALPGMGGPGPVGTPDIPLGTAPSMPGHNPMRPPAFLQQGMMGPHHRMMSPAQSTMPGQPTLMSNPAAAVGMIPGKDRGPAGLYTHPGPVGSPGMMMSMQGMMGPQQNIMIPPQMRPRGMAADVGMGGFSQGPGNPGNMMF

[10] = biological target: T1, beta-catenin-B-cell lymphoma 9 protein complex; test: Inhibition of beta-catenin/BCL9 protein-protein interaction in Wnt-independent human RKO cells assessed as reduction in Axin2 expression level by qRT-PCR assay; assay type: cell-based

IC50 [9]	IC50 [10]	Structure (SMILES)	inhibition (CT26 [1])	Activity [2]	Activity [3]	Activity (HEK293 [4])	Activity (HEK293 [5])	Activity [6]	Activity (CT26 [7])	viability at 10 µM (CT26 [8])
–	–	CC(C)c1ccc(-c2cccc(S(=O)(=O)N3CCCC(c4cccc(OC(C)(C)C(=O)NS(=O)(=O)c5ccc(C(F)(F)F)cc5)c4)C3)c2)cc1 (stereo not given)	Active	Non-Toxic	Non-Toxic	12.1%	inactive	Non-Toxic	Active	43.8%
10.6 µM	26.3 µM	O=C1[C@H](Cc2ccc(O)cc2)N2C(=O)CCN(C(=O)NCc3ccccc3)[C@H]2CN1Cc1cccc2ccccc12	–	–	–	–	–	–	–	–
